Results: US5912258A, “Thiadiazoleamide derivative and anti-ulcer drug” (Shiseido Co., Ltd., priority 1998, dated 1999)

Assays:
[1] = tested on: histamine-stimulated gastric acid secretion (pylorus-ligated rats); test: VOL, TAO: Acid Secretion Inhibition Test in vivo; design: species or system Male Crj:Donryu rats; conditions: rat, 100 mg/kg orally, histamine 30 mg/kg s.c.
Method: VOL, TAO: Acid Secretion Inhibition Test in vivo
Inhibitory effect on acid secretion in vivo is confirmed.
Male Crj:Donryu rats (7-week-old) were fasted overnight but allowed free access to water. In each group, 8 to 10 of these rats were used under urethane anesthesia (1.25 g/kg). The sample compound dissolved or suspended in an aqueous solution of 0.5% sodium carboxymethylcellulose or 0.05% Tween 80 was orally administered (100 mg/10 ml/kg). 30 minutes later, the abdomen of each was incised and the pylorus was ligated. 30 minutes after the ligation, 30 mg/kg of histamine dissolved in physiological saline was subcutaneously administered and, 3 hours thereafter, the rat was sacrificed with carbon dioxide. Immediately thereafter, each stomach was removed and the gastric contents were collected and each volume was determined. The total acid output was determined by titration of the gastric juice with 0.1N NaOH.
With respect to the gastric juice volume (VOL) and the total acid output (TAO), the effects obtained when 100 mg/kg of the sample compound had been administered were expressed as their respective inhibitory rates (%) as follows:
each inhibitory rate (%) {1-(value in sample group/value in control group)}×100

[2] = tested on: gastric corpus mucosa cells; test: MTT: Cell Damaging and Protecting Effect Test; format: cell-based, male Japanese White rabbit; conditions: rabbit gastric mucosa cells, 10^-4 M, 4 hours; smaller value is better; 100 µM
Text: MTT: Cell Damaging and Protecting Effect Test
It is confirmed that there is no toxicity in cell level. Those having toxicity in cell level are inappropriate as an anti-ulcer drug.
A male Japanese White rabbit (2.5 to 3 kg) was anesthetized to death by Nembutal™ and, immediately thereafter, its stomach was removed. The greater curvature of the stomach was incised so as to remove the stomach contents therefrom. After the mucosal surface was washed with HBSS (Hank's Balanced Salt Solution), the stomach in ice-cooled HBSS was transferred to a laboratory. Then, after the pyloric antrum was removed, the gastric corpus mucosa was separated by a spatula and then minced into 2 to 3 mm pieces in BME (Basal Medium Eagle). Thereafter, these pieces were shaken at 120 to 130 cycles/minute for 15 minutes at 37° C. in BME 60 ml containing 280 U/ml of dispase and 30 to 50 U/mil of collagenase. Here, the concentration of collagenase was appropriately changed for each lot in view of the state of cells. The pieces were washed twice with EBSS (Earle's Balanced Salt Solution) containing 1 mM of EDTA and then shaken in MEM (Minimum Essential Medium) containing 1 mM of EDTA at 37° C. for 5 minutes. Subsequently, they were shaken in the dispase and collagenase having the same concentrations as those mentioned above for 15 minutes so as to remove the supernatant and then further shaken at 37° C. for 50 to 60 minutes at 120 to 130 cycles/minute. Then, after being washed twice with HBSS, Ham F12 containing 2% of Ultrocer G™ was used to attain the concentration of 1×10^6 cells/ml. Thus formed suspension was dispensed in each well of a 96-well plate by 200 μl. The plate was incubated in the atmosphere composed of 5% CO2 and 95% air at 37° C. for three days so as to attain a confluent state and then subjected to MTT assay.
The sample compound was dissolved in DMSO so as to attain a concentration of 10^-2 M and then diluted with HBSS containing 2% of Ultrocer G™ so as to attain a final concentration of 10^-4 M. To each group, which 8 wells were used for, 10 μl of MTT reagent was added immediately after 100 μl of the medium in each well was exchanged for same volume of the resulting solution of the sample compound. After being incubated in an atmosphere composed of 5% CO2 and 95% air at 37° C. for 4 hours, thus formed solution was centrifuged and then its supernatant was discarded. Subsequently, 100 μl of 100% ethanol was added to the residue so as to dissolve MTT formazan. Then, the absorbance (OD: 570 to 630) was measured by a microplate reader. This method utilizes a phenomenon in which MTT is changed to MTT formazan only by mitochondria of living cells so as to change color.
The cell damaging or cell protecting effect of the sample compound at the final concentration of 10^-4 M was expressed as cell damaging rate (%) as follows:
cell damaging rate (%)={1-(absorbance in sample group/absorbance in control group)}×100
Accordingly, the smaller value is better in the cell damaging rate.

Structure (SMILES): CCSc1nnc(NC(=O)c2ccc(OC/C=C(\C)CCC=C(C)C)cc2)s1 [Example 15, 2-(4-geranyloxybenzoyl)amino-5-ethylthio-1,3,4-thiadiazole]
- TAO: total acid output inhibitory rate [1]: 19%
- VOL: gastric juice volume inhibitory rate [1]: 10%

Structure (SMILES): CC(C)c1ccc(C(=O)Nc2nnc(SCCN(C(C)C)C(C)C)s2)cc1 [Example 2, 2-(4-isopropylbenzoyl)amino-5-diisopropylaminoethylthio-1,3,4-thiadiazole]
- MTT: cell damaging rate [2]: -77%

Structure (SMILES): CCN(CC)CCSc1nnc(NC(=O)c2ccc(OC/C=C(\C)CCC=C(C)C)cc2)s1 [Example 10, 2-(4-geranyloxybenzoyl)amino-5-diethylaminoethylthio-1,3,4-thiadiazole]
- TAO: total acid output inhibitory rate [1]: 44%
- VOL: gastric juice volume inhibitory rate [1]: 36%
